{
  "source": "patent US20070213303A1",
  "about": "“Methods for reducing platelet activation and for the treatment of thrombotic events” (priority 2005, published 2007)",
  "assay_type_in_all_cases": "cell-based, human",
  "key": {"LAMP-3 (CD63)": {"test_system": "LAMP-3 (CD63)", "experiment": "Flow cytometry, platelet surface expression of CD63", "method": "(§1) Venous blood (8 ml) is collected in a plastic tube containing 2 ml of acid-citrate-dextrose (ACD) (7.3 g citric acid, 22.0 g sodium citrate.2H2O and 24.5 glucose in 1000 ml distilled water) and mixed well. The blood-ACD mixture is centrifuged at 1000 r.p.m. for 10 minutes at room temperature. The upper ⅔ of the platelet-rich plasma (PRP) is then collected and adjusted to pH=6.5 by adding ACD. The PRP is then centrifuged at 3000 r.p.m. for 10 minutes. The supernatant is removed and the platelet pellet is gently resuspended in 4 cc of the washing buffer (10 mM Tris/HCl, 0.15 M NaCl, 20 mM EDTA, pH=7.4). Platelets are washed in the washing buffer, and in TBS (10 mM Tris, 0.15 M NaCl, pH=7.4). All cells are then divided into the appropriate number of tubes. By way of example, if 9 different surface markers are evaluated, as described herein, then the cells should be divided into ten tubes, such that nine tubes containing washed platelets are incubated with 5 μl fluorescein isothiocyanate (FITC)-conjugated antibodies in the dark at +4° C. for 30 minutes, and one tube remains unstained and serves as a negative control. Surface antigen expression is measured with monoclonal murine anti-human antibodies, such as CD9 (p24); CD41a (IIb/IIIa, aIIbb3); CD42b (Ib); CD61(IIIa) (DAKO Corporation, Carpinteria, Calif.); CD49b (VLA-2, or a2b1); CD62p (P-selectin); CD31 (PECAM-1); CD 41b (IIb); and CD51/CD61 (vitronectin receptor, avb3) (PharMingen, San Diego Calif.), as the expression of these antigens on the cells is associated with platelet activation. After incubation, the cells are washed with TBS and resuspended in 0.25 ml of 1% paraformaldehyde. Samples are stored in the refrigerator at +4° C., and analyzed on a Becton Dickinson FACScan flow cytometer with laser output of 15 mw, excitation at 488 nm, and emission detection at 530±30 nm. The data can be collected and stored in list mode, and then analyzed using CELLQuest® software. FACS procedures are described in detail in, e.g., Gurbel, P. A. et al., J Amer Coll Cardiol 31: 1466-1473 (1998); Serebruany, V. L. et al., Am Heart J 136: 398-405 (1998); Gurbel, P. A. et al., Coron Artery Dis 9: 451-456 (1998) and Serebruany, V. L. et al., Arterioscl Thromb Vasc Biol 19: 153-158 (1999).\n(§2) Four cc of blood is collected in a tube, containing 2 cc of acid-citrate-dextrose (ACD; 7.3 g citric acid, 22.0 g sodium citrate.2H2O and 24.5 glucose in 1000 ml distilled water) and mixed well. The buffer, TBS (10 mM Tris, 0.15 M NaCl, pH 7.4) and the following fluorescein isothiocyanate (FITC) conjugated monoclonal antibodies (PharMingen, San Diego, Calif., USA, and DAKO, Calif., USA) are removed from a refrigerator and allowed to warm at room temperature (RT) prior to their use. The non-limiting examples of antibodies that can be used include CD41 (IIb/IIIa), CD31 (PECAM-1), CD62p (P-selectin), and CD51/61 (Vitronectin receptor). For each subject, six amber tubes (1.25 ml) are one Eppendorf tube (1.5 ml) are obtained and marked appropriately 450 μl of TBS buffer is pipetted to the labeled Eppendorf tube. A patient's whole blood tube is inverted gently twice to mix, and 50 μl of whole blood is pipetted to the appropriately labeled Eppendorf tube. The Eppendorf tube is capped and the diluted whole blood is mixed by inverting the Eppendorf tube gently two times, followed by pipetting 50 μl of diluted whole blood to each amber tube. […] The samples are analyzed on a Becton Dickinson FACScan flow cytometer. […]"}, "[1]": {"test_system": "vitronectin receptor (CD51/CD61)", "experiment": "Flow cytometry, platelet surface expression of CD51/61", "method": "as §1, §2"}, "CD40-ligand (CD154)": {"test_system": "CD40-ligand (CD154)", "experiment": "Flow cytometry, platelet surface expression of CD154", "method": "as §1, §2"}, "LAMP-1 (CD107a)": {"test_system": "LAMP-1 (CD107a)", "experiment": "Flow cytometry, platelet surface expression of CD107a", "method": "as §1, §2"}, "[2]": {"test_system": "platelet-monocyte microparticles (CD14+CD151)", "experiment": "Flow cytometry, formation of platelet-monocyte microparticles", "method": "as §1, §2"}, "CD41a": {"test_system": "CD41a", "experiment": "Flow cytometry, platelet surface expression of CD41a", "method": "as §1, §2"}, "P-selectin (CD62p)": {"test_system": "P-selectin (CD62p)", "experiment": "Flow cytometry, platelet surface expression of CD62p", "method": "as §1, §2"}, "GP Ib (CD42b)": {"test_system": "GP Ib (CD42b)", "experiment": "Flow cytometry, platelet surface expression of CD42b", "method": "as §1, §2"}},
  "data": [
    {"compound": "CC(C)(Sc1cc(C(C)(C)C)c(O)c(C(C)(C)C)c1)Sc1cc(C(C)(C)C)c(OC(=O)CCC(=O)O)c(C(C)(C)C)c1", "note": "[Compound A]", "values": [
      {"measurement": "LAMP-3 (CD63)", "setting": "LAMP-3 (CD63)", "value": "little or no effect"},
      {"measurement": "Flow cytometry CD63", "setting": "LAMP-3 (CD63); preincubation 15 μg/mL", "value": "7.0 ± 1.4"},
      {"measurement": "Flow cytometry CD63", "setting": "LAMP-3 (CD63); preincubation 30 μg/mL", "value": "7.4 ± 1.4"},
      {"measurement": "Flow cytometry CD63", "setting": "LAMP-3 (CD63); preincubation 60 μg/mL", "value": "6.8 ± 1.5"},
      {"measurement": "Flow cytometry CD63", "setting": "LAMP-3 (CD63); preincubation 90 μg/mL", "value": "6.7 ± 1.4"},
      {"measurement": "vitronectin receptor (CD51/CD61)", "setting": "[1]", "value": "little or no effect"},
      {"measurement": "Flow cytometry CD51/61", "setting": "[1]; preincubation 15 μg/mL", "value": "10.9 ± 2.1"},
      {"measurement": "Flow cytometry CD51/61", "setting": "[1]; preincubation 30 μg/mL", "value": "11.4 ± 1.6"},
      {"measurement": "Flow cytometry CD51/61", "setting": "[1]; preincubation 60 μg/mL", "value": "11.8 ± 2.1"},
      {"measurement": "Flow cytometry CD51/61", "setting": "[1]; preincubation 90 μg/mL", "value": "10.2 ± 1.7"},
      {"measurement": "CD40-ligand (CD154)", "setting": "CD40-ligand (CD154)", "value": "little or no effect"},
      {"measurement": "Flow cytometry CD154", "setting": "CD40-ligand (CD154); preincubation 15 μg/mL", "value": "6.6 ± 1.0"},
      {"measurement": "Flow cytometry CD154", "setting": "CD40-ligand (CD154); preincubation 30 μg/mL", "value": "6.7 ± 0.9"},
      {"measurement": "Flow cytometry CD154", "setting": "CD40-ligand (CD154); preincubation 60 μg/mL", "value": "6.8 ± 1.1"},
      {"measurement": "Flow cytometry CD154", "setting": "CD40-ligand (CD154); preincubation 90 μg/mL", "value": "7.0 ± 1.1"},
      {"measurement": "LAMP-1 (CD107a)", "setting": "LAMP-1 (CD107a)", "value": "little or no effect"},
      {"measurement": "Flow cytometry CD107a", "setting": "LAMP-1 (CD107a); preincubation 15 μg/mL", "value": "6.7 ± 1.5"},
      {"measurement": "Flow cytometry CD107a", "setting": "LAMP-1 (CD107a); preincubation 30 μg/mL", "value": "6.4 ± 1.4"},
      {"measurement": "Flow cytometry CD107a", "setting": "LAMP-1 (CD107a); preincubation 60 μg/mL", "value": "6.1 ± 1.5"},
      {"measurement": "Flow cytometry CD107a", "setting": "LAMP-1 (CD107a); preincubation 90 μg/mL", "value": "6.4 ± 1.6"},
      {"measurement": "Flow cytometry CD151 + 14", "setting": "[2]; preincubation 15 μg/mL", "value": "131.4 ± 11.8"},
      {"measurement": "Flow cytometry CD151 + 14", "setting": "[2]; preincubation 30 μg/mL", "value": "107.6 ± 15.4"},
      {"measurement": "Flow cytometry CD151 + 14", "setting": "[2]; preincubation 60 μg/mL", "value": "98.7 ± 12.9"},
      {"measurement": "Flow cytometry CD151 + 14", "setting": "[2]; preincubation 90 μg/mL", "value": "97.9 ± 10.8"},
      {"measurement": "Formation of platelet-monocyte microparticles (CD14+CD151)", "setting": "[2]; pretreated samples", "value": "reduced"},
      {"measurement": "Flow cytometry CD41a", "setting": "CD41a; preincubation 15 μg/mL", "value": "185.3 ± 21.3"},
      {"measurement": "Flow cytometry CD41a", "setting": "CD41a; preincubation 30 μg/mL", "value": "170.3 ± 16.7"},
      {"measurement": "Flow cytometry CD41a", "setting": "CD41a; preincubation 60 μg/mL", "value": "165.5 ± 16.7"},
      {"measurement": "Flow cytometry CD41a", "setting": "CD41a; preincubation 90 μg/mL", "value": "160.9 ± 23.2"},
      {"measurement": "Surface platelet expression of GP IIb/IIIa (CD41a) antigen", "setting": "CD41a; pretreated samples", "value": "decreased"},
      {"measurement": "P-selectin (CD62p)", "setting": "P-selectin (CD62p)", "value": "little or no effect"},
      {"measurement": "Flow cytometry CD62p", "setting": "P-selectin (CD62p); preincubation 15 μg/mL", "value": "9.8 ± 1.8"},
      {"measurement": "Flow cytometry CD62p", "setting": "P-selectin (CD62p); preincubation 30 μg/mL", "value": "10.2 ± 1.9"},
      {"measurement": "Flow cytometry CD62p", "setting": "P-selectin (CD62p); preincubation 60 μg/mL", "value": "10.5 ± 1.8"},
      {"measurement": "Flow cytometry CD62p", "setting": "P-selectin (CD62p); preincubation 90 μg/mL", "value": "9.7 ± 1.8"},
      {"measurement": "Flow cytometry CD42b", "setting": "GP Ib (CD42b); preincubation 15 μg/mL", "value": "151.6 ± 11.2"},
      {"measurement": "Flow cytometry CD42b", "setting": "GP Ib (CD42b); preincubation 30 μg/mL", "value": "142.8 ± 11.4"},
      {"measurement": "Flow cytometry CD42b", "setting": "GP Ib (CD42b); preincubation 60 μg/mL", "value": "137.7 ± 8.9"},
      {"measurement": "Flow cytometry CD42b", "setting": "GP Ib (CD42b); preincubation 90 μg/mL", "value": "111.2 ± 11.2"},
      {"measurement": "Surface platelet expression of GP Ib (CD42b)", "setting": "GP Ib (CD42b); pretreated samples", "value": "decreased"}
    ]}
  ]
}
